Results reported in PubChem BioAssay AID248 (DTP/NCI, 2004).
Where “and” joins values, the source holds several entries; their conditions need not be identical. Equal entries are not always repeated. Inconclusive results and toxic doses are left out. Cut-off read from the data, not from the text of the source: active = T/C of 150% or more; inactive = T/C below 125%.

Test system: L1210 leukemia ip in BDF1 mice, survival T/C
Experiment: NCI In Vivo Anticancer Drug Screen. Data for tumor model L1210 Leukemia (intraperitoneal) in B6D2F1 (BDF1) mice
Conditions: endpoint: mean survival time, higher = longer survival
Summary of the method: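 Value reflects the ratio of survival in compound-treated mice to survival in vehicle-treated controls, with both groups carrying the same transplanted tumor.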

[1] = dose: 100.0 mg/kg/injection, schedule: Q04DX003 (ip), vehicle: Klucel (hydroxypropylcellulose) (HPC)
[2] = dose: 200.0 mg/kg/injection, schedule: Q04DX003 (ip), vehicle: Klucel (hydroxypropylcellulose) (HPC)
[3] = dose: 400.0 mg/kg/injection, schedule: Q04DX003 (ip), vehicle: Klucel (hydroxypropylcellulose) (HPC)
[4] = dose: 100.0 mg/kg/injection, schedule: Q01DX009 (ip), vehicle: other
[5] = dose: 200.0 mg/kg/injection, schedule: Q01DX009 (ip), vehicle: other
[6] = dose: 100.0 mg/kg/injection, schedule: Q04DX002 (ip), vehicle: Klucel (hydroxypropylcellulose) (HPC)
[7] = dose: 200.0 mg/kg/injection, schedule: Q04DX002 (ip), vehicle: Klucel (hydroxypropylcellulose) (HPC)
[8] = dose: 400.0 mg/kg/injection, schedule: Q04DX002 (ip), vehicle: Klucel (hydroxypropylcellulose) (HPC)
[9] = dose: 25.0 mg/kg/injection, schedule: Q04DX003 (ip), vehicle: Klucel (hydroxypropylcellulose) (HPC)
[10] = dose: 50.0 mg/kg/injection, schedule: Q01DX009 (ip), vehicle: Klucel (hydroxypropylcellulose) (HPC)
[11] = dose: 50.0 mg/kg/injection, schedule: Q04DX003 (ip), vehicle: Klucel (hydroxypropylcellulose) (HPC)
[12] = dose: 100.0 mg/kg/injection, schedule: Q04DX003 (ip), vehicle: saline with Tween-80
[13] = dose: 200.0 mg/kg/injection, schedule: Q04DX003 (ip), vehicle: saline with Tween-80
[14] = dose: 100.0 mg/kg/injection, schedule: Q04DX002 (ip), vehicle: saline with Tween-80
[15] = dose: 200.0 mg/kg/injection, schedule: Q04DX002 (ip), vehicle: saline with Tween-80
[16] = dose: 100.0 mg/kg/injection, schedule: Q01DX009 (ip), vehicle: Klucel (hydroxypropylcellulose) (HPC)
[17] = dose: 200.0 mg/kg/injection, schedule: Q01DX009 (ip), vehicle: Klucel (hydroxypropylcellulose) (HPC)
[18] = dose: 400.0 mg/kg/injection, schedule: Q01DX009 (ip), vehicle: Klucel (hydroxypropylcellulose) (HPC)
[19] = dose: 75.0 mg/kg/injection, schedule: Q01DX001 (ip), vehicle: saline
[20] = dose: 150.0 mg/kg/injection, schedule: Q01DX001 (ip), vehicle: saline
[21] = dose: 50.0 mg/kg/injection, schedule: Q01DX009 (ip), vehicle: saline
[22] = dose: 100.0 mg/kg/injection, schedule: Q01DX009 (ip), vehicle: saline
[23] = dose: 200.0 mg/kg/injection, schedule: Q01DX009 (ip), vehicle: saline

Measured: T/C

Cc1ccc2c(ccc3ccccc32)n1
inactive: [1] 97 % of control | [2] 90 % of control | [3] 90 % of control

Nc1cccc2cn[nH]c12
inactive: [4] 104 % of control | [5] 112 % of control

CCCCCCCCCCCCCCCCNC(=S)N/N=C(/C=C/c1ccccc1)C(=O)O
inactive: dose: 15.0 mg/kg/injection, schedule: Q01DX Z (ip), vehicle: carboxymethylcellulose (CMC) 101 % of control | dose: 30.0 mg/kg/injection, schedule: Q01DX Z (ip), vehicle: carboxymethylcellulose (CMC) 108 % of control | dose: 30.0 mg/kg/injection, schedule: Q01DX Z (oral), vehicle: carboxymethylcellulose (CMC) 112 % of control | dose: 60.0 mg/kg/injection, schedule: Q01DX Z (ip), vehicle: carboxymethylcellulose (CMC) 113 % of control | dose: 60.0 mg/kg/injection, schedule: Q01DX Z (oral), vehicle: carboxymethylcellulose (CMC) 111 % of control | dose: 120.0 mg/kg/injection, schedule: Q01DX Z (oral), vehicle: carboxymethylcellulose (CMC) 100 % of control and 101 % of control | dose: 240.0 mg/kg/injection, schedule: Q01DX Z (oral), vehicle: carboxymethylcellulose (CMC) 108 % of control and 109 % of control | dose: 480.0 mg/kg/injection, schedule: Q01DX Z (oral), vehicle: carboxymethylcellulose (CMC) 109 % of control | dose: 960.0 mg/kg/injection, schedule: Q01DX Z (oral), vehicle: carboxymethylcellulose (CMC) 113 % of control

O=c1ccc2cc3oc(=O)ccc3cc2o1
inactive: dose: 100.0 mg/kg/injection, schedule: Q01DX001 (ip), vehicle: saline with Tween-80 90 % of control | dose: 200.0 mg/kg/injection, schedule: Q01DX001 (ip), vehicle: saline with Tween-80 97 % of control | dose: 400.0 mg/kg/injection, schedule: Q01DX001 (ip), vehicle: saline with Tween-80 90 % of control

CN(C)C(=S)S
inactive: dose: 50.0 mg/kg/injection, schedule: Q01DX001 (ip), vehicle: saline 100 % of control | dose: 50.0 mg/kg/injection, schedule: Q04DX002 (ip), vehicle: Klucel (hydroxypropylcellulose) (HPC) 103 % of control | dose: 100.0 mg/kg/injection, schedule: Q01DX001 (ip), vehicle: saline 100 % of control | [6] 103 % of control | dose: 200.0 mg/kg/injection, schedule: Q01DX001 (ip), vehicle: saline 100 % of control | [7] 100 % of control | dose: 400.0 mg/kg/injection, schedule: Q01DX001 (ip), vehicle: saline 100 % of control | [8] 96 % of control

[NH-]c1ccccc1C(=O)O.[NH-]c1ccccc1C(=O)O.[Zn+2]
inactive: dose: 12.5 mg/kg/injection, schedule: Q01DX009 (ip), vehicle: Klucel (hydroxypropylcellulose) (HPC) 98 % of control | dose: 25.0 mg/kg/injection, schedule: Q01DX009 (ip), vehicle: Klucel (hydroxypropylcellulose) (HPC) 97 % of control | [9] 97 % of control | [10] 93 % of control | [11] 90 % of control | [1] 94 % of control

O/N=C1/CCN2CCCc3cccc1c32
inactive: [12] 94 % of control | [13] 97 % of control

O=C(OCc1ccccc1CN1CCOCC1)c1ccc([N+](=O)[O-])cc1
inactive: [6] 105 % of control | [7] 98 % of control | [8] 98 % of control

COC1OC(CCl)C(O)C(O)C1O (configuration not stated)
inactive: dose: 100.0 mg/kg/injection, schedule: Q04DX002 (ip), vehicle: saline 98 % of control | [12] 93 % of control | dose: 200.0 mg/kg/injection, schedule: Q04DX002 (ip), vehicle: saline 103 % of control | [13] 100 % of control | dose: 400.0 mg/kg/injection, schedule: Q04DX002 (ip), vehicle: saline 106 % of control | dose: 400.0 mg/kg/injection, schedule: Q04DX003 (ip), vehicle: saline with Tween-80 89 % of control

COc1cc(/C=N\Nc2ccccc2)ccc1OC(=O)c1ccccc1
inactive: [14] 91 % of control | [15] 91 % of control | dose: 400.0 mg/kg/injection, schedule: Q04DX002 (ip), vehicle: saline with Tween-80 98 % of control

COC(=O)c1ccccn1
inactive: [14] 100 % of control | [15] 107 % of control

COC(=O)C(c1ccccc1)C(Br)C(=O)c1ccccc1 (configuration not stated)
inactive: [16] 86 % of control | [1] 97 % of control | [17] 86 % of control | [2] 102 % of control | [18] 86 % of control | [3] 95 % of control

Cc1cccc(-c2nc(N)nc(N)n2)c1
inactive: [19] 106 % of control | [20] 104 % of control | dose: 300.0 mg/kg/injection, schedule: Q01DX001 (ip), vehicle: saline 101 % of control

C=CCCCCCCCC/C=N\NC(=O)c1ccc[n+](C)c1
inactive: [21] 106 % of control | [22] 100 % of control

NNC(=O)c1ccc(NC(=S)Nc2ccccc2)cc1
inactive: [16] 93 % of control | [17] 93 % of control | [18] 104 % of control

CC(=O)N(C)c1ccc(NC(=O)Nc2cc([N+](=O)[O-])ccc2C)cc1
inactive: [6] 106 % of control | [7] 108 % of control | [8] 101 % of control

NCCCOc1ccc([N+](=O)[O-])cc1Cl
inactive: [21] 106 % of control | [19] 98 % of control | [22] 110 % of control | dose: 100.0 mg/kg/injection, schedule: Q04DX003 (ip), vehicle: saline 111 % of control | [20] 98 % of control | [23] 101 % of control | dose: 200.0 mg/kg/injection, schedule: Q04DX003 (ip), vehicle: saline 101 % of control

N#CCCN(CCc1ccccn1)C(=S)Nc1cccc(C(F)(F)F)c1
inactive: [4] 110 % of control | [5] 98 % of control | dose: 400.0 mg/kg/injection, schedule: Q01DX009 (ip), vehicle: other 110 % of control

CCCCCCNC(=O)c1ccc(C(=O)NCCCCCC)cc1
inactive: [16] 94 % of control and 101 % of control | [17] 102 % of control | [18] 95 % of control and 90 % of control

Cc1ccc(S(=O)(=O)NCCCCCC(=O)O)cc1
inactive: [16] 101 % of control | [1] 98 % of control | [17] 101 % of control | [2] 94 % of control | [18] 100 % of control | [3] 96 % of control

Cc1cnc2c(Nc3ccc(Cl)cc3)cc(N)nc2n1
inactive: dose: 12.5 mg/kg/injection, schedule: Q01DX001 (ip), vehicle: other 94 % of control | dose: 25.0 mg/kg/injection, schedule: Q01DX001 (ip), vehicle: other 96 % of control | [9] 96 % of control | dose: 50.0 mg/kg/injection, schedule: Q01DX001 (ip), vehicle: other 94 % of control and 105 % of control | [10] 94 % of control | [11] 101 % of control

O=C(C1=NNC(c2ccccc2)C1C(=O)c1ccccc1)c1ccccc1 (configuration not stated)
inactive: dose: 100.0 mg/kg/injection, schedule: Q01DX001 (ip), vehicle: steriod suspending solution 93 % of control | dose: 200.0 mg/kg/injection, schedule: Q01DX001 (ip), vehicle: steriod suspending solution 110 % of control | dose: 400.0 mg/kg/injection, schedule: Q01DX001 (ip), vehicle: steriod suspending solution 101 % of control

COC(=N)C/C=C/CC(=N)OC
inactive: [22] 94 % of control | [23] 94 % of control | dose: 400.0 mg/kg/injection, schedule: Q01DX009 (ip), vehicle: saline 92 % of control

O=C(O)C1(Br)c2ccccc2-c2ccccc21
inactive: dose: 50.0 mg/kg/injection, schedule: Q01DX001 (ip), vehicle: carboxymethylcellulose (CMC) 100 % of control | [11] 100 % of control | dose: 100.0 mg/kg/injection, schedule: Q01DX001 (ip), vehicle: carboxymethylcellulose (CMC) 100 % of control | [1] 94 % of control | dose: 200.0 mg/kg/injection, schedule: Q01DX001 (ip), vehicle: carboxymethylcellulose (CMC) 96 % of control | [2] 96 % of control | dose: 400.0 mg/kg/injection, schedule: Q01DX001 (ip), vehicle: carboxymethylcellulose (CMC) 105 % of control
